Source: BigSolDB 2.1

OC(Cc1ccccc1Cl)(Cn1[nH]cnc1=S)C1(Cl)CC1 (centres undefined)
solubility (mole fraction) (in acetonitrile, 283.15 K): 0.00629 | solubility (mole fraction) (in acetonitrile, 288.15 K): 0.008 | solubility (mole fraction) (in acetonitrile, 293.15 K): 0.0103 | solubility (mole fraction) (in acetonitrile, 298.15 K): 0.0126 | solubility (mole fraction) (in acetonitrile, 303.15 K): 0.0171 | solubility (mole fraction) (in acetonitrile, 308.15 K): 0.0214 | solubility (mole fraction) (in acetonitrile, 313.15 K): 0.0254 | solubility (mole fraction) (in isopropanol, 283.15 K): 0.0115 | solubility (mole fraction) (in isopropanol, 288.15 K): 0.0142 | solubility (mole fraction) (in isopropanol, 293.15 K): 0.0176 | solubility (mole fraction) (in isopropanol, 298.15 K): 0.0215 | solubility (mole fraction) (in isopropanol, 303.15 K): 0.0268 | solubility (mole fraction) (in isopropanol, 308.15 K): 0.0331 | solubility (mole fraction) (in isopropanol, 313.15 K): 0.0385 | solubility (mole fraction) (in methanol, 283.15 K): 0.01 | solubility (mole fraction) (in methanol, 288.15 K): 0.0127 | solubility (mole fraction) (in methanol, 293.15 K): 0.0154 | solubility (mole fraction) (in methanol, 298.15 K): 0.019 | solubility (mole fraction) (in methanol, 303.15 K): 0.0232 | solubility (mole fraction) (in methanol, 308.15 K): 0.0307 | solubility (mole fraction) (in methanol, 313.15 K): 0.0371 | solubility (mole fraction) (in n-butanol, 283.15 K): 0.0147 | solubility (mole fraction) (in n-butanol, 288.15 K): 0.018 | solubility (mole fraction) (in n-butanol, 293.15 K): 0.0215 | solubility (mole fraction) (in n-butanol, 298.15 K): 0.0268 | solubility (mole fraction) (in n-butanol, 303.15 K): 0.0327 | solubility (mole fraction) (in n-butanol, 308.15 K): 0.0417 | solubility (mole fraction) (in n-butanol, 313.15 K): 0.0513 | solubility (mole fraction) (in n-propanol, 283.15 K): 0.0125 | solubility (mole fraction) (in n-propanol, 288.15 K): 0.0161 | solubility (mole fraction) (in n-propanol, 293.15 K): 0.0199 | solubility (mole fraction) (in n-propanol, 298.15 K): 0.0248 | solubility (mole fraction) (in n-propanol, 303.15 K): 0.0305 | solubility (mole fraction) (in n-propanol, 308.15 K): 0.0373 | solubility (mole fraction) (in n-propanol, 313.15 K): 0.0465 | solubility (mole fraction) (in sec-butanol, 283.15 K): 0.00735 | solubility (mole fraction) (in sec-butanol, 288.15 K): 0.00954 | solubility (mole fraction) (in sec-butanol, 293.15 K): 0.0124 | solubility (mole fraction) (in sec-butanol, 298.15 K): 0.0152 | solubility (mole fraction) (in sec-butanol, 303.15 K): 0.0191 | solubility (mole fraction) (in sec-butanol, 308.15 K): 0.0259 | solubility (mole fraction) (in sec-butanol, 313.15 K): 0.0321 | solubility (mole fraction) (in toluene, 283.15 K): 0.00196 | solubility (mole fraction) (in toluene, 288.15 K): 0.00287 | solubility (mole fraction) (in toluene, 293.15 K): 0.00368 | solubility (mole fraction) (in toluene, 298.15 K): 0.00481 | solubility (mole fraction) (in toluene, 303.15 K): 0.00574 | solubility (mole fraction) (in toluene, 308.15 K): 0.00782 | solubility (mole fraction) (in toluene, 313.15 K): 0.0101
